Data published in PubChem BioAssay AID1963845 (Molecular Pharmacology Branch, DTP, NCI, 2024).
Several values for one entry are separate records, joined by “and”; a condition that tells them apart may be missing. Equal entries are not always repeated.

Test system: 429239-143-T-J1-PDC complex spheroid viability
Experiment: Anticancer human tumor 429239-143-T-J1-PDC patient-derived small cell lung carcinoma cell line growth inhibition [POLQ]
Conditions: for viability, T/C: stronger effect = lower value; active = viability on the fitted dose curve at most 10% of control; inactive = the rest
Method: Multicellular complex tumor spheroid response to Polymerase (POL) inhibitors (novobiocin, ART-558, RP6685) in combination with a variety of drugs and investigational agents in selected tumor cell lines
The POL inhibitors (novobiocin, ART-558, and RP6685) were evaluated both individually and in combination with standard of care and investigational anticancer small molecules within a complex spheroid model of solid tumors. . Complex spheroids include a stromal component modeled by human endothelial cells (HUVEC) and fibroblasts modeled by human mesenchymal stem cells (MSCs). The concentration ranges selected for each drug and investigational agent were based upon clinically achievable concentrations if the clinical Cmax of the agent was known.
Compounds. The drugs and investigational agents: novobiocin (NSC847541), ART-558 (NSC835418), RP-6685 (NSC848927), peposertib (NSC802822), ceralasertib (NSC780249), elimusertib (NSC800525), camonsertib (NSC841442), AZD-1390 (NSC803789), olaparib (NSC753686), talazoparib (NSC767125), rucaparib (NSC756644), sotorasib (NSC818433), MRTX-1133 (NSC836407), SN-38 (NSC673596), topotecan (NSC609699), epotoside (NSC141540), doxorubicin (NSC123127), gemcitabine (NSC613327), 5-fluorouracil (NSC19893), paclitaxel (NSC125973), vemurafenib (NSC761431), MSA-2 (NSC828583), SN-011 (NSC837082), adavosertib (NSC754352), prexasertib (NSC758257), carboplatin (NSC241240) and oxaliplatin (NSC266046), were obtained from the National Cancer Institute (NCI) Developmental Therapeutics Program Chemical Repository (21). The FDA-approved anticancer drug set is available from the Developmental Therapeutics Program at https://dtp.cancer.gov/organization/dscb/obtaining/. […] The stock solutions were prepared in dimethyl sulfoxide (DMSO, Sigma-Aldrich, St. Louis, MO, cat. D2650), except for the platinum compounds which were prepared in saline (Quality Biological, Gaithersburg, MD, cat. 114-055-101), at 800-fold the tested concentration and stored at -70 degrees C prior to their use. All drugs and investigational agents were tested over a range starting from a high concentration at or near the clinical Cmax and decreasing in half-log increments. If the clinical Cmax for an agent had not been determined, the highest concentration tested was 10 microM, except for SN-38, which was tested at a high concentration of 1 microM.
Cell Culture. All cells were maintained in an incubator at 37 degrees C and 5% CO2 with 95% humidity. The PDC lines were cultured according to standard operating procedures established by the NCI PDMR (https://pdmr.cancer.gov). Table 3 of the manuscript, lists the cell lines along with the number of the three cell types plated to form the mct-spheroids and media for tumor cell growth. After thawing, all PDC lines, except 997537-175-T-J1-PDC and 415267-285-R-J2-PDC, were cultured in Matrigel-coated flasks prepared with a working solution of 1X Ham's F-12 nutrient mix, without supplementation (Thermo Fisher Scientific, cat. 11765054), 100 U/mL penicillin-streptomycin (Thermo Fisher Scientific, cat. 15140122), and 2.5% Matrigel (Corning Inc., Corning, NY, cat. 354248) for the first three passages. The two PDC lines 997537-175-T-J1-PDC and 415267-285-R-J2-PDC were cultured on uncoated flasks. The 857933-349-R-J2-PDC line was cultured in 6C/Colon 1B media containing advanced DMEM/F-12 (Thermo Fisher Scientific, cat. 12634028), 10 mM HEPES (Thermo Fisher Scientific, cat. 15630080), 1X GlutaMAX supplement (Thermo Fisher Scientific, cat. 35050061), 0.1 mg/mL primocin (InvivoGen, San Diego, CA, cat. ant-pm-2), 10% defined fetal bovine serum, heat inactivated (HyClone Laboratories Inc., Logan, UT, cat. SH30070.03HI), 50% L-WRN conditioned media (ATCC, cat. CRL-3276), 1.25 mM N-Acetyl-L-cysteine (Sigma-Aldrich, cat. A9165), 10 mM nicotinamide (Sigma-Aldrich, cat. N0636), 1X B-27 supplement (Thermo Fisher Scientific, cat. 17504044), 1X N-2 supplement (Thermo Fisher Scientific, cat. […]

[1] = curve of first compound, second compound 0.0316 µM
[2] = curve of first compound, second compound 0.1 µM
[3] = curve of first compound, second compound 0.316 µM
[4] = curve of first compound, second compound 1 µM
[5] = curve of first compound, second compound 3.16 µM
[6] = curve of first compound, second compound 10 µM
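Also: luminescence signal used as surrogate measure of viable cells; spheroids exposed to compounds for seven days before readout.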
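For viability, T/C in this document: 100% = DMSO vehicle control viability as luminescence relative to vehicle.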

O=C(Nc1ccc(O)c(NS(=O)(=O)c2ccc(F)cc2)c1)c1ccc(-c2ccccc2)cc1 + Nc1ccc(C#CCN(C(=O)Cc2ncc(C(F)(F)F)cc2C(F)(F)F)c2ccc(F)cc2)nn1
> 10000 nM: IC50 [1] | IC50 [2] | IC50 [3] | IC50 [4] | IC50 [5] | IC50 [6]
inactive: viability, T/C (second compound 0.0316 µM, first compound 0.0316 µM) 102% | viability, T/C (second compound 0.0316 µM, first compound 0.1 µM) 106% | viability, T/C (second compound 0.0316 µM, first compound 0.316 µM) 89.5% | viability, T/C (second compound 0.0316 µM, first compound 1 µM) 105% | viability, T/C (second compound 0.0316 µM, first compound 3.16 µM) 106% | viability, T/C (second compound 0.0316 µM, first compound 10 µM) 110% | viability, T/C (second compound 0.1 µM, first compound 0.0316 µM) 105% | viability, T/C (second compound 0.1 µM, first compound 0.1 µM) 109% | viability, T/C (second compound 0.1 µM, first compound 0.316 µM) 112% | viability, T/C (second compound 0.1 µM, first compound 1 µM) 106% | viability, T/C (second compound 0.1 µM, first compound 3.16 µM) 109% | viability, T/C (second compound 0.1 µM, first compound 10 µM) 99% | viability, T/C (second compound 0.316 µM, first compound 0.0316 µM) 111% | viability, T/C (second compound 0.316 µM, first compound 0.1 µM) 103% | viability, T/C (second compound 0.316 µM, first compound 0.316 µM) 104% | viability, T/C (second compound 0.316 µM, first compound 1 µM) 108% | viability, T/C (second compound 0.316 µM, first compound 3.16 µM) 116% | viability, T/C (second compound 0.316 µM, first compound 10 µM) 98.2% | viability, T/C (second compound 1 µM, first compound 0.0316 µM) 115% | viability, T/C (second compound 1 µM, first compound 0.1 µM) 109% | viability, T/C (second compound 1 µM, first compound 0.316 µM) 95.8% | viability, T/C (second compound 1 µM, first compound 1 µM) 106% | viability, T/C (second compound 1 µM, first compound 3.16 µM) 113% | viability, T/C (second compound 1 µM, first compound 10 µM) 109% | viability, T/C (second compound 3.16 µM, first compound 0.0316 µM) 107% | viability, T/C (second compound 3.16 µM, first compound 0.1 µM) 103% | viability, T/C (second compound 3.16 µM, first compound 0.316 µM) 103% | viability, T/C (second compound 3.16 µM, first compound 1 µM) 101% | viability, T/C (second compound 3.16 µM, first compound 3.16 µM) 97.1% | viability, T/C (second compound 3.16 µM, first compound 10 µM) 106% | viability, T/C (second compound 10 µM, first compound 0.0316 µM) 102% | viability, T/C (second compound 10 µM, first compound 0.1 µM) 96.6% | viability, T/C (second compound 10 µM, first compound 0.316 µM) 103% | viability, T/C (second compound 10 µM, first compound 1 µM) 93.7% | viability, T/C (second compound 10 µM, first compound 3.16 µM) 95.1% | viability, T/C (second compound 10 µM, first compound 10 µM) 96.3%

CC(=O)O[C@H]1C(=O)[C@@]2(C)[C@H]([C@H](OC(=O)c3ccccc3)[C@]3(O)C[C@H](OC(=O)[C@H](O)[C@@H](NC(=O)c4ccccc4)c4ccccc4)C(C)=C1C3(C)C)[C@]1(OC(C)=O)CO[C@@H]1C[C@@H]2O + Nc1ccc(C#CCN(C(=O)Cc2ncc(C(F)(F)F)cc2C(F)(F)F)c2ccc(F)cc2)nn1
14.4 nM: IC50 [1] | IC50 [2]
inactive: viability, T/C (second compound 0.0316 µM, first compound 0.00949 µM) 65.6% | viability, T/C (second compound 0.0316 µM, first compound 0.03 µM) 20.2% | viability, T/C (second compound 0.0316 µM, first compound 0.0949 µM) 16% | viability, T/C (second compound 0.0316 µM, first compound 0.3 µM) 16.2% | viability, T/C (second compound 0.0316 µM, first compound 0.949 µM) 26.6% | viability, T/C (second compound 0.0316 µM, first compound 3 µM) 32.6% | viability, T/C (second compound 0.1 µM, first compound 0.00949 µM) 67% | viability, T/C (second compound 0.1 µM, first compound 0.03 µM) 18.6% | viability, T/C (second compound 0.1 µM, first compound 0.0949 µM) 15.9% | viability, T/C (second compound 0.1 µM, first compound 0.3 µM) 17.1% | viability, T/C (second compound 0.1 µM, first compound 0.949 µM) 22.2% | viability, T/C (second compound 0.1 µM, first compound 3 µM) 24.6% | viability, T/C (second compound 0.316 µM, first compound 0.00949 µM) 64.2% | viability, T/C (second compound 0.316 µM, first compound 0.03 µM) 22.6% | viability, T/C (second compound 0.316 µM, first compound 0.0949 µM) 16% | viability, T/C (second compound 0.316 µM, first compound 0.3 µM) 17.1% | viability, T/C (second compound 0.316 µM, first compound 0.949 µM) 19.8% | viability, T/C (second compound 0.316 µM, first compound 3 µM) 26.2% | viability, T/C (second compound 1 µM, first compound 0.00949 µM) 71% | viability, T/C (second compound 1 µM, first compound 0.03 µM) 18.2% | viability, T/C (second compound 1 µM, first compound 0.0949 µM) 14.8% | viability, T/C (second compound 1 µM, first compound 0.3 µM) 17.5% | viability, T/C (second compound 1 µM, first compound 0.949 µM) 25.2% | viability, T/C (second compound 1 µM, first compound 3 µM) 24% | viability, T/C (second compound 3.16 µM, first compound 0.00949 µM) 67% | viability, T/C (second compound 3.16 µM, first compound 0.03 µM) 16.2% | viability, T/C (second compound 3.16 µM, first compound 0.0949 µM) 15.4% | viability, T/C (second compound 3.16 µM, first compound 0.3 µM) 15.9% | viability, T/C (second compound 3.16 µM, first compound 0.949 µM) 18.5% | viability, T/C (second compound 3.16 µM, first compound 3 µM) 26.7% | viability, T/C (second compound 10 µM, first compound 0.00949 µM) 64.3% | viability, T/C (second compound 10 µM, first compound 0.03 µM) 14.5% | viability, T/C (second compound 10 µM, first compound 0.0949 µM) 13.4% | viability, T/C (second compound 10 µM, first compound 0.3 µM) 14.3% | viability, T/C (second compound 10 µM, first compound 0.949 µM) 15.9% | viability, T/C (second compound 10 µM, first compound 3 µM) 18.5%
13.2 nM: IC50 [6]
14.2 nM: IC50 [5]
15.3 nM: IC50 [4]
14 nM: IC50 [3]

CC1COCCN1c1cc(-c2ccnn2C)c2ccnc(-c3ccn[nH]3)c2n1 (stereo not drawn)
10.7% and 9.53% and 5.15%: viability, T/C (compound 3.16 µM)
102 nM and 88.6 nM and 527 nM: IC50 (curve of compound)
inactive: viability, T/C (compound 0.0316 µM) 81.5% and 81.3% and 92.4% | viability, T/C (compound 0.1 µM) 50% and 45.1% and 76.5% | viability, T/C (compound 0.316 µM) 27.3% and 28.6% and 65.2% | viability, T/C (compound 1 µM) 13.1% and 16% and 35.1%
active: viability, T/C (compound 10 µM) 10.5% and 9.86% and 3.76%

CC(=O)O[C@H]1C(=O)[C@@]2(C)[C@H]([C@H](OC(=O)c3ccccc3)[C@]3(O)C[C@H](OC(=O)[C@H](O)[C@@H](NC(=O)c4ccccc4)c4ccccc4)C(C)=C1C3(C)C)[C@]1(OC(C)=O)CO[C@@H]1C[C@@H]2O
13.4 nM and 14.9 nM and < 9.49 nM: IC50 (curve of compound)
inactive: viability, T/C (compound 0.00949 µM) 62.4% and 68.4% and 14% | viability, T/C (compound 0.03 µM) 18.6% and 19.8% and 13.2% | viability, T/C (compound 0.0949 µM) 14.8% and 17.6% and 11.4% | viability, T/C (compound 0.3 µM) 19.5% and 16.1% and 12.9% | viability, T/C (compound 0.949 µM) 19.7% and 25.1% and 11.1% | viability, T/C (compound 3 µM) 29.5% and 28.1% and 14%
